Measurements reported in patent publication US20130108717A1, “COMPOSITIONS FOR THE TREATMENT OF GYNAECOLOGICAL DISORDERS” (INDENA S.P.A., priority 2010, published 2013).
In brackets after ≈: the same amount, converted by molar mass.

Tests used:
Type in all cases: cell-based
[1] = tested on: Candida albicans; experiment: MIC, microdilution in broth (CLSI M27-A), vaginally isolated strains
[2] = tested on: Gardnerella vaginalis; experiment: MIC, broth dilution (CLSI M11-A4), vaginally isolated strains
[3] = tested on: Trichomonas vaginalis; experiment: MIC on Diamond's medium, loss of motility, vaginally isolated strains
[4] = tested on: Methicillin-resistant Staphylococcus aureus; experiment: MIC, micro-dilution in culture broth (CLSI M 7-A5), vaginally isolated strains

SMILES: CC1(C)[C@@H](O)CC[C@]2(C)[C@H]3C(=O)C=C4[C@@H]5C[C@@](C)(C(=O)O)CC[C@]5(C)CC[C@@]4(C)[C@]3(C)CC[C@@H]12 [18-beta-glycyrrhetic acid, 18β-glycyrrhetic acid]
- MIC ([1]; Candida albicans 1): 667 µg/mL (≈ 1420 µM)
- MIC ([1]; Candida albicans 2): 667 µg/mL (≈ 1420 µM)
- MIC ([1]; Candida albicans 3): 667 µg/mL (≈ 1420 µM)
- MIC ([1]; Candida albicans 4): 667 µg/mL (≈ 1420 µM)
- MIC ([1]; Candida albicans 5): 333 µg/mL (≈ 707 µM)
- MIC ([2]; Gardnerella vaginalis 1): 667 µg/mL (≈ 1420 µM)
- MIC ([2]; Gardnerella vaginalis 2): 667 µg/mL (≈ 1420 µM)
- MIC ([2]; Gardnerella vaginalis 3): 333 µg/mL (≈ 707 µM)
- MIC ([2]; Gardnerella vaginalis 4): 167 µg/mL (≈ 355 µM)
- MIC ([2]; Gardnerella vaginalis 5): 667 µg/mL (≈ 1420 µM)
- MIC ([2]; Gardnerella vaginalis 6): 667 µg/mL (≈ 1420 µM)
- MIC ([2]; Gardnerella vaginalis 7): 167 µg/mL (≈ 355 µM)
- MIC ([2]; Gardnerella vaginalis 8): 333 µg/mL (≈ 707 µM)
- MIC ([2]; Gardnerella vaginalis 9): 333 µg/mL (≈ 707 µM)
- MIC ([2]; Gardnerella vaginalis 10): 167 µg/mL (≈ 355 µM)
- MIC ([3]; Trichomonas vaginalis 1): 150 µg/mL (≈ 319 µM)
- MIC ([3]; Trichomonas vaginalis 2): 150 µg/mL (≈ 319 µM)
- MIC ([3]; Trichomonas vaginalis 3): 150 µg/mL (≈ 319 µM)
- MIC ([3]; Trichomonas vaginalis 4): 150 µg/mL (≈ 319 µM)
- MIC ([4]; S. aureus Met R 1): >1333 µg/mL
- MIC ([4]; S. aureus Met R 2): >1333 µg/mL
- MIC ([4]; S. aureus Met R 3): 1333 µg/mL (≈ 2830 µM)
- MIC ([4]; S. aureus Met R 4): 1333 µg/mL (≈ 2830 µM)
- MIC ([4]; S. aureus Met R 5): >1333 µg/mL
